Measured values: patent US20070037752A1, “Novel alanyl-amino peptidase inhibitors for functionally influencing different cells and treating immunological, inflammatory, neuronal, and other diseases” (priority 2003, published 2007)
Read-outs that look alike come from different tables or passages of the source. Residues, ends and D or L forms follow the SMILES beside them. *: point of attachment. OBn = c1ccc(CO*)cc1

Molecular target: alanyl aminopeptidases (APN) (Homo sapiens, UniProt P15144)
Test: Inhibition of alanyl aminopeptidase enzymatic activity, fluorogenic substrate (Ala)2-rhodamine 110
Assay type: biochemical
Procedure: The inhibition characteristics measured are referred to as IC-50 values or ID50 values (the latter marked with “*”) for said enzyme. The enzymatic activity was determined by means of the fluorogenic substrate/product (Ala)2-rhodamine 110.

[1] = Table 3, unstarred values, read-out: IC50APN
[2] = Table 9, unstarred values, read-out: IC50APN
[3] = Table 4, unstarred values, read-out: IC50APN
[4] = Table 3, starred values = ID50, read-out: ID50 APN (values marked with *)
[5] = Table 8, unstarred values, read-out: IC50APN

Sequence of alanyl aminopeptidases (APN) (P15144 whole entry, species assumed): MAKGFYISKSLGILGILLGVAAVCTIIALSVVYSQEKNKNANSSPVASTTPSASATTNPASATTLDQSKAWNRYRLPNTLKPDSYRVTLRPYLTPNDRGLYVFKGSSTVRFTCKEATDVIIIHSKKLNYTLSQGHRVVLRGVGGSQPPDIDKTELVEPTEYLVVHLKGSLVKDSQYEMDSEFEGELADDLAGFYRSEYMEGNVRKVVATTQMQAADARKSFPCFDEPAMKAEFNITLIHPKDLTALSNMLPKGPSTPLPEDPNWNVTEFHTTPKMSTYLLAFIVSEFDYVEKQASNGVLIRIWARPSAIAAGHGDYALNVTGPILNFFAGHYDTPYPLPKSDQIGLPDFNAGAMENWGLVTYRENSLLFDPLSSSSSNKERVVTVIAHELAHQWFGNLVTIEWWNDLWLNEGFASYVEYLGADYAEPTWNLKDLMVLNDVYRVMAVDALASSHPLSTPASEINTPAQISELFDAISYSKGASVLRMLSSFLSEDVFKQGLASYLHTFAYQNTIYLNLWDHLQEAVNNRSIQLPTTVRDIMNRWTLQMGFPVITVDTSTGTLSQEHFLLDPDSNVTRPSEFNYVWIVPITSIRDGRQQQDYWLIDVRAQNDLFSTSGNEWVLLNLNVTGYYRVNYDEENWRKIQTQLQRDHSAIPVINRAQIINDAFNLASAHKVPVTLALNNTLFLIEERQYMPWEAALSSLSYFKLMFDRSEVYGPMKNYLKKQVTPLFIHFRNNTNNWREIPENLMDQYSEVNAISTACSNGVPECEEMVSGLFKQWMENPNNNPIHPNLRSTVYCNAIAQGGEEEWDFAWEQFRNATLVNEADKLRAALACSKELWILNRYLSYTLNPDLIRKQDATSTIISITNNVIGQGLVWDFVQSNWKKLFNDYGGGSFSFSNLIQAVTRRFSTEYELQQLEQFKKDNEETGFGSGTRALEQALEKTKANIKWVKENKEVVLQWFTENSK

O=[N+]([O-])c1ncn(CCBr)n1 [A3.235]
IC50 [1]: 41.1 µM

COc1ccc(C(=O)/C=C/c2ccc(-c3ccccc3)o2)cc1 [A3.236]
IC50 [1]: 41.2 µM

Cc1ccc(/C=C(\NC(=O)c2ccccc2)C(=O)NCCN2CCOCC2)o1 [A12.063]
IC50 (Table 12, read-out: IC50APN): 55 µM

CCOC(=O)c1cc(-c2ccc(/C=C3/C(=O)NC(=O)C(C#N)=C3C)o2)ccc1Cl [A9.099]
IC50 [2]: 52.1 µM

CC(C)C/C=N/NC(=O)c1ccc([N+](=O)[O-])cc1Cl [A11.010]
IC50 (Table 11, read-out: IC50APN): 15.6 µM

COc1ccc(/C(C)=N/NC(=O)CNC(=O)/C=C\c2ccco2)cc1 [A3.181]
IC50 [1]: 29.4 µM

CCCOC(=O)c1cc(-c2ccc(/C=C3\C(=O)N(CCCO)C(=O)C(C#N)=C3C)o2)ccc1Cl [A3.146]
IC50 [1]: 23.8 µM

CCCCc1noc2c1/C(=N/O)CC(c1ccccc1)C2 (stereo not drawn) [A2.001]
IC50 (Table 2, read-out: IC50APN): 2.2 µM

O=C(CCCOc1ccc(Cl)cc1Cl)N/N=C/c1ccco1 [A4.081]
IC50 [3]: 26.3 µM

O=C1C(Cc2ccc(O)cc2)NC(=S)N1Cc1ccccc1 (stereo not drawn) [A3.145]
IC50 [4]: 23.7 µM

O=C(CCn1nnc2ccccc21)N/N=C/c1ccco1 [A3.310]
IC50 [1]: 82.9 µM

COC(=O)c1cc(NC(=O)Cc2cccs2)cc(C(=O)OC)c1 [A3.117]
IC50 [1]: 21.2 µM

COC(=O)C1=C(C(=O)OC)C(c2cc(Br)ccc2O)c2sc(O)nc2S1 (stereo not drawn) [A3.015]
IC50 [1]: 4.7 µM

Cc1ccc(OCC(=O)N/N=C/c2c(Br)cc(Br)c(O)c2Br)c(Br)c1 [A4.147]
IC50 (Table 4, starred values = ID50, read-out: ID50 APN (values marked with *)): 54.2 µM

Cc1ccc(/C=N/NC(=O)c2ccc(NC(=O)c3ccccc3C)cc2)o1 [A4.067]
IC50 [3]: 22.8 µM

CCCOC(=O)C(NC(=O)c1ccccc1)(N1CCOCC1)C(F)(F)F (stereo not drawn) [A9.125]
IC50 (Table 9, starred values = ID50, read-out: ID50 APN (values marked with *)): 186 µM

Cc1ccc(/C=N/NC(=O)COc2ccccc2C)o1 [A4.061]
IC50 [3]: 22.2 µM

O=C(N/N=C/c1ccco1)c1ccc(NCc2ccccc2)cc1 [A3.346]
IC50 [4]: 294 µM

O=C1C2=[N+]([O-])C3CCCCC3[N+]([O-])=C2c2ccccc21 (stereo not drawn) [A9.030]
IC50 [2]: 13.7 µM

CN(C)c1ccc(C2NCCS2)cc1 (stereo not drawn) [A3.338]
IC50 [4]: 230 µM

COC(=O)c1cccc(-c2ccc(/C=C3\C(=O)N(CCO)C(=O)C(C#N)=C3C)o2)c1 [A9.010]
IC50 [2]: 6.3 µM

CC1=C(C#N)C(=O)N(CCO)C(=O)/C1=C\c1ccc(-c2cc(Cl)ccc2Cl)o1 [A3.003]
IC50 [4]: 1.2 µM

CC1=C(C#N)C(O)=NC(=O)/C1=C/c1ccc(-c2ccc(Cl)c(C(=O)OC(C)C)c2)o1 [A3.120]
IC50 [1]: 21.4 µM

Nc1nc2nc(-c3ccco3)cc(C(F)(F)F)n2n1 [A9.084]
IC50 [2]: 32.1 µM

O=C(CNC(=O)C(c1ccccc1)c1ccccc1)N/N=C/c1ccco1 [A3.071]
IC50 [1]: 15.6 µM

O=C(N/N=C/c1ccco1)c1cccc(Br)c1 [A3.283]
IC50 [1]: 62.7 µM

Cc1cc(=O)[nH]c(N/N=C/c2ccco2)n1 [A8.018]
IC50 [5]: 18.2 µM

CSCCC(NC(=O)c1ccc(C(F)(F)F)cc1)C(=O)NO (stereo not drawn) [A12.061]
IC50 (Table 12, read-out: IC50APN): 51.2 µM

CCC(C)C(NC(=O)C(N)CC(=O)OCc1ccccc1)C(=O)NC(Cc1ccccc1)C(=O)OC (stereo not drawn) [A12.016] (H-Asp(OBn)-Ile-Phe-OMe; configuration not given here)
IC50 (Table 12, read-out: IC50APN): 8.6 µM

CC1=C(C#N)C(=O)N(CC(C)O)C(=O)/C1=C/c1ccc(-c2ccc(Br)cc2)o1 (stereo not drawn) [A12.058]
IC50 (Table 12, read-out: IC50APN): 47.2 µM

CC(C)(C)OC(=O)N/N=C\C=C\c1ccco1 [A8.008]
IC50 [5]: 10.8 µM

Cc1ccc(/C=N/NC(=O)c2ccc(F)cc2)o1 [A3.207]
IC50 [1]: 34.4 µM

Cc1ccc(/C=C(\NC(=O)c2ccccc2)C(=O)NCCN2CCOCC2)o1 [A3.273]
IC50 [4]: 55 µM

COc1ccc(C[C@@H](N)C(=O)N[C@H]2[C@H](O)[C@H](n3cnc4c(N(C)C)ncnc43)O[C@@H]2CO)cc1 [A12.037]
IC50 (Table 12, read-out: IC50APN): 20.9 µM

COc1c(OCC(O)C(C)(C)O)ccc2c1N=C1OC=CC1C2OC (stereo not drawn) [A12.072]
IC50 (Table 12, read-out: IC50APN): 117 µM

Cc1ccc(NC(=O)/C(=C\c2ccco2)NC(=O)c2ccccc2Cl)cc1 [A3.086]
IC50 [1]: 17.9 µM

O=C(N/N=C/c1ccco1)c1ccc([N+](=O)[O-])cc1 [A3.347]
IC50 [4]: 305 µM

C/C(=N\NC(=O)c1ccco1)c1ccc(C)o1 [A3.331]
IC50 [1]: 152 µM

COc1cc(C)[n+](OC(=O)N(C)C)c(C)c1 [A8.030]
IC50 [5]: 42.4 µM

O=C(COc1ccc2ccccc2c1Br)N/N=C/c1ccco1 [A4.137]
IC50 [3]: 47.3 µM

C=CCOC(=O)c1cc(-c2ccc(/C=C3/C(=O)N(CCCO)C(=O)C(C#N)=C3C)o2)ccc1Cl [A13.008]
IC50 (Table 13, read-out: IC50APN): 18.1 µM

O=C(CS(=O)(=O)c1ccc(Cl)cc1)NO [A6.003]
IC50 (Table 6, read-out: IC50APN): 11.5 µM

Cc1cc(I)ccc1NC(=O)CCC(=O)N/N=C/c1ccco1 [A4.048]
IC50 [3]: 9.5 µM

O=c1[nH]c(/C=C/c2ccco2)cc2ccccc12 [A3.067]
IC50 [1]: 14.6 µM

Cc1cc(C)cc(OCC(=O)N/N=C/c2ccco2)c1 [A4.070]
IC50 [3]: 23.4 µM
